Assay in all cases: drug sensitivity score (DSS) from 5-dose viability curve (DSS (area-based score, 0 = no response)); higher = more sensitive (stronger viability inhibition); extreme values may be limits of the assay
The subject of assay [1] is MDCK p60AmotL2-inducible + doxycycline (p60AmotL2 expressing). Conditions: doxycycline: 10 ng/mL; 72 h. In a few lines:
(§1)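 Parental MDCK cells and MDCK cells with doxycycline-inducible p60AmotL2, both given doxycycline at 10 ng/mL in the medium before plating, were dispensed at 2000 cells/well onto pre-spotted 384-well plates. The plates held an oncology library of 528 drugs at five doses (1-10,000 nM) and were incubated 72 h at 37 °C. Viability was read as CellTiter-Glo luminescence and scaled per plate between vehicle and positive controls. Drug sensitivity scores came from dose-response curve fits in the Breeze pipeline.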

Assay [2] has as its system MDCK wild-type + doxycycline. Conditions: doxycycline: 10 ng/mL; 72 h. In a few lines:
as §1

Assay [3] relates to MDCK wild-type - doxycycline. Conditions: doxycycline: none; 72 h. In a few lines: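 For 72 h at 37 °C, parental MDCK cells (no doxycycline, 2000 cells/well) were incubated on 384-well plates pre-spotted with 528 oncology drugs at five doses from 1 to 10,000 nM. CellTiter-Glo luminescence served as the viability readout, scaled per plate between vehicle and positive controls. The Breeze pipeline then fitted dose-response curves to yield drug sensitivity scores.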

Structures are written as SMILES.

Consider `NC(=O)NO` [Hydroxyurea], for which the drug sensitivity score in assay [1] was 0; in assay [2], 0; in assay [3] it was 2.

Regarding `COc1cc2c(cc1-c1c(C)noc1C)ncc1[nH]c(=O)n([C@H](C)c3ccccn3)c12` [I-BET151], the figures for the drug sensitivity score in assay [1], in assay [2] and in assay [3] were 10.9, 4.6 and 0.6, respectively.

For the compound `O=C(O)c1ccc(O)c2ncccc12` [IOX-1], the drug sensitivity score in assay [1] is 1.7; in assay [2], 1.6; in assay [3], 1.4.

Take `O=C(O)CNC(=O)c1c(O)c2ccccc2n(Cc2ccccc2)c1=O` [IOX-2]: the drug sensitivity score in assay [1], in assay [2] and in assay [3] was 0 throughout.

As to `C=CC(=O)N1CCC[C@@H](n2nc(-c3ccc(Oc4ccccc4)cc3)c3c(N)ncnc32)C1` [Ibrutinib], the drug sensitivity score stood at 9.7 in assay [1], 3.8 in assay [2] and 4.5 in assay [3].

Turning to `C#Cc1cccc(Nc2ncnc3cc4c(cc23)OCCOCCOCCO4)c1` [Icotinib], the drug sensitivity score in assay [1] worked out at 7.8; in assay [2], 2.4; in assay [3], 0.

For `CC(=O)[C@]1(O)Cc2c(O)c3c(c(O)c2[C@@H](O[C@H]2C[C@H](N)[C@H](O)[C@H](C)O2)C1)C(=O)c1ccccc1C3=O` [Idarubicin], the drug sensitivity score in assay [1] was 19; in assay [2], 13.9; in assay [3], 16.6.

Take `COc1cc(C(=O)O)ccc1NC(=O)[C@@H]1N[C@@H](CC(C)(C)C)[C@](C#N)(c2ccc(Cl)cc2F)[C@H]1c1cccc(Cl)c1F` [Idasanutlin]: the drug sensitivity score in assay [1] was 16.2; in assay [2], 12.6; in assay [3], 8.4.

Regarding `CC[C@H](Nc1ncnc2[nH]cnc12)c1nc2cccc(F)c2c(=O)n1-c1ccccc1` [Idelalisib], the drug sensitivity score in assay [1] was found to be 0.7; in assay [2], 0; in assay [3] it was 0.

In the case of `Cc1ccc(NC(=O)c2ccc(CN3CCN(C)CC3)cc2)cc1Nc1nccc(-c2cccnc2)n1` [Imatinib], the drug sensitivity score in assay [1] is 3.4; in assay [2], 0; in assay [3], 2.7.

As for `CC(C)Cn1cnc2c(N)nc3ccccc3c21` [Imiquimod], the drug sensitivity score stood at 0.3 in assay [1], 0 in assay [2] and 0 in assay [3].

For the compound `O=C(Nc1ccncc1)C(=O)c1cn(Cc2ccc(Cl)cc2)c2ccccc12` [Indibulin], the drug sensitivity score in assay [1] turned out to be 10.7; in assay [2], 0; in assay [3], 7.2.

For `CCN1CCN(c2ccc(Nc3cc(N(C)C(=O)Nc4c(Cl)c(OC)cc(OC)c4Cl)ncn3)cc2)CC1` [Infigratinib], the drug sensitivity score in assay [1], in assay [2] and in assay [3] was 0 in each case.

In the case of `CC(C)NC[C@@H](C(=O)N1CCN(c2ncnc3c2[C@H](C)C[C@H]3O)CC1)c1ccc(Cl)cc1` [Ipatasertib], the figures for the drug sensitivity score in assay [1], in assay [2] and in assay [3] were 2.2, 0.1 and 0, respectively.

As for `CCC(C)n1ncn(-c2ccc(N3CCN(c4ccc(OCC5COC(Cn6cncn6)(c6ccc(Cl)cc6Cl)O5)cc4)CC3)cc2)c1=O` (centres undefined) [Itraconazole], the figures for the drug sensitivity score in assay [1], in assay [2] and in assay [3] were 10.7, 7.7 and 7.9, respectively.

As to `N#Cc1ccnc(N2C(=O)CC[C@H]2C(=O)N(c2cncc(F)c2)[C@H](C(=O)NC2CC(F)(F)C2)c2ccccc2Cl)c1` [Ivosidenib], the drug sensitivity score in assay [1], in assay [2] and in assay [3] was 0 in each case.

For `C/C(=C\c1csc(C)n1)[C@@H]1C[C@@H]2O[C@]2(C)CCC[C@H](C)[C@H](O)[C@@H](C)C(=O)C(C)(C)[C@@H](O)CC(=O)N1` [Ixabepilone], the drug sensitivity score was 5 in assay [1], 5 in assay [2] and 5.4 in assay [3].

With `CC(C)C[C@H](NC(=O)CNC(=O)c1cc(Cl)ccc1Cl)B(O)O` [Ixazomib], the drug sensitivity score is 9.7 in assay [1], 9.4 in assay [2] and 9.6 in assay [3].

Turning to `Nc1cc(COc2c(Cl)cc(C[C@H](N)C(=O)O)cc2Cl)c2oc(-c3ccccc3)nc2c1` [JPH203], the drug sensitivity score in assay [1], in assay [2] and in assay [3] was 0 in each case.

With `CC(C)NC(=O)COc1cccc(-c2nc(Nc3ccc4[nH]ncc4c3)c3ccccc3n2)c1` [KD025], the figures for the drug sensitivity score in assay [1], in assay [2] and in assay [3] were 0, 0 and 0.8, respectively.

As for `CS(=O)(=O)CCNCc1ccc(-c2ccc3ncnc(Nc4ccc(OCc5cccc(F)c5)c(Cl)c4)c3c2)o1` [Lapatinib], the drug sensitivity score came to 6.8 in assay [1], 0 in assay [2] and 0.9 in assay [3].

Turning to `O=C(Nc1cnn2ccc(N3CCC[C@@H]3c3cc(F)ccc3F)nc12)N1CC[C@H](O)C1` [Larotrectinib], the drug sensitivity score in assay [1], in assay [2] and in assay [3] was 0 throughout.

Consider `Oc1ccc2c(c1)CC[C@H](c1ccccc1)[C@@H]2c1ccc(OCCN2CCCC2)cc1` [Lasofoxifene], for which the drug sensitivity score in assay [1], in assay [2] and in assay [3] was 0 each time.

For the compound `Nc1cccc2c1CN(C1CCC(=O)NC1=O)C2=O` (centres undefined) [Lenalidomide], the drug sensitivity score in assay [1], in assay [2] and in assay [3] was 0 in each case.

In the case of `COc1cc2nccc(Oc3ccc(NC(=O)NC4CC4)c(Cl)c3)c2cc1C(N)=O` [Lenvatinib], the drug sensitivity score in assay [1], in assay [2] and in assay [3] was 0 throughout.

With `N#Cc1ccc(C(c2ccc(C#N)cc2)n2cncn2)cc1` [Letrozole], the drug sensitivity score in assay [1], in assay [2] and in assay [3] was 0 each time.

As to `Cc1ccc(F)c(NC(=O)Nc2ccc(-c3cccc4[nH]nc(N)c34)cc2)c1` [Linifanib], the drug sensitivity score in assay [1], in assay [2] and in assay [3] was 0 in each case.

For the compound `C[C@]1(O)C[C@@H](c2nc(-c3ccc4ccc(-c5ccccc5)nc4c3)c3c(N)nccn32)C1` [Linsitinib], the drug sensitivity score in assay [1], in assay [2] and in assay [3] was 0 throughout.

With `CCNCCS(=O)(=O)NC[C@@]1(c2ccccc2)SC(NC(=O)C(C)(C)C)=NN1C(=O)C(C)(C)C` [Litronesib], the drug sensitivity score in assay [1] is 26.6; in assay [2], 25.1; in assay [3], 22.

As to `Nc1nc(OCc2cc(Br)cs2)c2[nH]cnc2n1` [Lomeguatrib], the drug sensitivity score in assay [1], in assay [2] and in assay [3] was 0 each time.

With `NC(=O)N1CCC(CC(=O)N2CCC([C@H]3c4ncc(Br)cc4CCc4cc(Cl)cc(Br)c43)CC2)CC1` [Lonafarnib], the results for the drug sensitivity score in assay [1], in assay [2] and in assay [3] were 14.6, 9.9 and 8.6, respectively.

As to `Cc1c(F)cc(C(=O)NC2CC2)cc1-c1ccc(C(=O)NCC(C)(C)C)cn1` [Losmapimod], the drug sensitivity score in assay [1], in assay [2] and in assay [3] was 0 throughout.

As for `CC[C@H](C)C(=O)O[C@H]1C[C@@H](C)C=C2C=C[C@H](C)[C@H](CC[C@@H]3C[C@@H](O)CC(=O)O3)[C@H]21` [Lovastatin], the drug sensitivity score in assay [1], in assay [2] and in assay [3] was 0 each time.

For the compound `CNC(=O)c1cccc2cc(Oc3ccnc4cc(OCC5(N)CC5)c(OC)cc34)ccc12` [Lucitanib], the drug sensitivity score in assay [1] was 2.6; in assay [2], 0.7; in assay [3], 0.

`CCNC(=O)c1noc(-c2cc(C(C)C)c(O)cc2O)c1-c1ccc(CN2CCOCC2)cc1` [Luminespib]: the drug sensitivity score in assay [1] worked out at 20.7; in assay [2], 18.4; in assay [3], 15.8.

On to `O=C(O)CC[C@H]1CC[C@@](c2cc(F)ccc2F)(S(=O)(=O)c2ccc(Cl)cc2)CC1` [MK-0752], for which the drug sensitivity score in assay [1], in assay [2] and in assay [3] was 0 each time.

Regarding `NC1(c2ccc(-c3nc4ccn5c(=O)[nH]nc5c4cc3-c3ccccc3)cc2)CCC1` [MK-2206], the drug sensitivity score in assay [1], in assay [2] and in assay [3] was 0 in each case.

With `O=C(c1cccc(Cl)c1F)N1CCN(Cc2cccc(Nc3nccs3)n2)CC1` [MK-8745], the results for the drug sensitivity score in assay [1], in assay [2] and in assay [3] were 12.4, 9.5 and 6.6, respectively.

The record behind these values is the supplement of paper PMC11003180.
